Entries after “also recorded” stand apart in the source; their conditions may differ. Like-named read-outs stand apart in the source and are kept apart here. Marks after values point to notes of the source that are not given here. Where a SMILES comes first, the peptide text is derived from it.
What was measured:
[1] = tested on: Swiss albino mice; test: Rotarod test; assay type: in vivo
Description: Swiss albino mice (∼20-30 g) were first trained on the rotarod, which accelerated from 0-20 rpm over 5 min, prior to the experiment. Only mice that were capable of staying on the rotarod for the entire 5 min period were used in this experiment. Mice were either administered with the peptide (1 or 10 mg/kg, sublingual), or morphine (20 mg/kg, subcutaneous). After drug administration, the animals are placed on the rotarod and the time taken for the mice to slip was recorded (up to 5 min), and subsequently at 1h, 2h and 3h post peptide, and at 30 min, 1h30 min and 2h30 min post morphine. Statistical comparison was done by either Student's t-test or one-way ANOVA.

[2] = tested on: Swiss albino mice; test: Acetic acid-induced writhing model; assay type: in vivo; details: 1 mg/kg, intraperitoneal
Description: Swiss albino mice (20-25 g, male) were administered with the peptide and at the appropriate post- dose time acetic acid (0.9% solution) was injected intraperitoneally (10 ml/kg). The mice were then placed in a transparent observer box and the total number of writhes per animal in the 15 min period after injection of acetic acid was recorded. A writhe is typically characterized by contractions of the abdominal musculature followed by extension of the hind limbs. Statistical comparison was done by either Student's t-test or one-way ANOVA.
At 1 h post administration time, acetic acid (0.9% solution) was injected intraperitoneally and the total number of writhes per animal was recorded, as described above. Upon completion of the experiment the animals were sacrificed and skull exposed. The accuracy of the injection was confirmed via injection of methyl-blue dye into the injection aperture left by the original injection. Only results from mice showing coloration of the ventricles are accepted.

[3] = tested on: Swiss albino mice; test: Hot plate model; assay type: in vivo; details: intraperitoneal administration, 30 min post-dose, positive control
[4] = tested on: Swiss albino mice; test: Spontaneous locomotor activity; assay type: in vivo
Description: Swiss albino mice (∼30 - 40 g) were first placed into their respective chambers with a 20 min pre-treatment recording. Only mice showing at least 50 counts / 5 min are used in the experiments. Mice were administered saline (control), peptide (5 or 50 mg/kg) or morphine (50 mg/kg). Experimenters were blind to the identity of the drug solutions. After drug administration, the animals were placed into their individual chambers and their spontaneous locomotor activity was recorded by video tracking and the data were recorded for a period of 4 h. Statistical comparison was done by 2-way ANOVA.

[5] = tested on: Swiss albino mice; test: GI motility (charcoal transit distance); assay type: in vivo; details: 30 min post-drug
Description: Swiss albino mice (30-35 g) were injected with saline, the peptide (5 mg/kg, 50 mg/kg intraperitoneal) or morphine (0.5 mg/kg, 5 mg/kg, 50 mg/kg intraperitoneal). The experimenters are blind to the identity of the solutions. All mice were administered 5 mg charcoal (0.1 ml of 50 mg/ml charcoal solution) via oral gavage immediately after drug administration. At 30 min post- drug / charcoal administration, the mice were sacrificed by cervical dislocation and the GI tract was exposed and the location of the charcoal identified. The distance the charcoal traveled in the intestine from the stomach was measured and expressed as % of total length of the GI tract.

[6] = tested on: rats; test: Elevated-plus maze test; assay type: in vivo
Source text: The Elevated-Plus Maze Test is generally used to assess anxiety level of rodents due to their natural aversion for height. Two opposite arms of the elevated-plus maze are enclosed by high walls (closed arms) while the other two are not (open arms). The test animals (rats) naturally prefer and spend more time in the closed arms.

[7] = tested on: rats; test: Open-field test (anxiety score); assay type: in vivo
Source text: The open field test is generally used to assess anxiety level of rodents due to their natural aversion of open space and thus their preference to stay near the side rather than venturing to the more open central part of the open field.
The open field was divided into 16 equal size squares (25 x 25 cm). The 4 squares at the centre are assigned a low anxiety score (0) while those at the 4 corners are assigned a high anxiety score (2). The remaining 8 squares are assigned a medium score (1). A rat entering each square will be given the score assigned to that square. The sum total obtained within the 5-min test period divided by the number of squares entered is the anxiety score for that rat. Diazepam was used as positive control. Statistical comparison was done by Student's t-test.

[8] = tested on: mice; test: Acute high dose toxicity (oral and intravenous); assay type: in vivo
Description: Acute toxicity was determined by both oral and intravenous administration of the peptide. Three mice were given a dose of peptide at 2 g/kg orally by gavage, 5 ml/kg.

[9] = tested on: Swiss albino mice; test: Toxicity, multiple dose regimen, once daily for 14 days; assay type: in vivo; details: for Appearance / Body Weight Day 1 / Body Weight Day 14 / Death: Intraperitoneal, daily
Description: Swiss albino mice were administered with the peptide at 8 mg/kg or 80 mg/kg (intraperitoneal) once daily for 14 days. Control mice received saline. At the end of the period, all mice were killed, dissected and observed for any obvious abnormality. Weights of the major organs, including brain, heart, lung, liver, spleen and kidney, were recorded.

[10] = Pharmacokinetics: plasma concentration and bioavailability by route (LC/MS/MS); assay type: in vivo, mice; details: for bioavailability: AUC compared to intravenous route
Description: The peptide (1, 5, 15 and 25 mg/kg, 0.5 ml/kg) was administered sublingually to mice. Upon reaching specified time points of 1, 5, 15, 30, 60 and 120 min post-dose, each mouse was sacrificed and blood samples were collected via cardiac puncture. Plasma samples were then extracted and analyzed under LC/MS/MS. Systemic exposure of the peptide was also studied through intravenous, oral (gavage) and intraperitoneal routes.

[11] = tested on: Swiss albino mice; test: Toxicity, single dose regimen, 14 days observation; assay type: in vivo; details: for Appearance / Body Weight Day 1 / Body Weight Day 14 / Death: intraperitoneal, single dose
Description: Swiss albino mice were administered with the peptide at 8 mg/kg or 80 mg/kg (intraperitoneal) on day 1 and then observed for 14 days. Control mice received saline.
At the end of the period, all mice were sacrificed, dissected and observed for any obvious abnormality. Weights of the major organs, including brain, heart, lung, liver, spleen and kidney, were recorded.

[12] = tested on: Sprague-Dawley rats; test: Acute effect on blood pressure, heart rate and respiration rate in anesthetized rats; assay type: in vivo; details: 5 and 20 mg/kg
Description: Sprague-Dawley rats (∼300 g) were anesthetized and the carotid artery was cannulated for blood pressure measurement. Drugs were administered by the pre-determined route. A pulse transducer was secured across the thoracic region of the rat to allow measurement of respiration rate. Blood pressure was recorded for at least 15 min or until a relatively stable blood pressure was observed.

[13] = cited from earlier work
[14] = 125 mg/kg, intravenous, only the 5 mice that survived
[15] = sublingual route (oxytocin in physiological saline solution)

## CN1CC[C@]23c4c5ccc(O)c4O[C@H]2[C@@H](O)C=C[C@H]3[C@H]1C5 [Morphine, morphine]
[1]; 20 mg/kg, subcutaneous, 30 min, 1h30 min and 2h30 min post dose
  rotarod performance (time to slip): No statistical significant effects
[1]; 20 mg/kg, subcutaneous, 30 min post drug administration, p=0.056
  rotarod performance (time to slip): near significant decrease in performance
[2]
  Time to first writhe: 190.75* % saline control
  Total writhes in 15 min: 38.18* % saline control
  Writhes in first 5 min: 12.5* % saline control
  Writhes in subsequent 10 min: 48.56* % saline control
[3]; Mus musculus, ip, 0.5 h
  ED50: 0.82 mg/kg
[3]
  Emax: 250 % of pre-dose latency
[4]; 50 mg/kg, intraperitoneal, between 60 min and 220 min post drug administration
  locomotive activities: significant increase in locomotive activities
[5]; 0.5 to 50 mg/kg intraperitoneal
  GI transit distance: dose-dependently decreased GI motility; also recorded: dose dependent inhibitory effect

## CN1C(=O)CN=C(c2ccccc2)c2cc(Cl)ccc21 [diazepam]
[6]; compared to DMSO-controls
  times spent in open and closed arms: reversed the times spent in open and closed arms
[7]; positive control
  anxiety score: decreased the anxiety score significantly

## C[C@@H](O)[C@H](NC(=O)[C@@H]1CCCN1C(=O)[C@H](Cc1ccccc1)NC(=O)[C@@H]1CCCN1C(=O)[C@@H](N)CC(N)=O)C(=O)N[C@@H](Cc1c[nH]c2ccccc12)C(=O)N[C@@H](CCCNC(=N)N)C(=O)N[C@@H](CCCCN)C(=O)N[C@@H](CCCNC(=N)N)C(=O)N1CCC[C@H]1C(=O)NCC(=O)O [the peptide, NPFPTWRKRPG] (H-NPFPTWRKRPG-OH)
[1]; 1 or 10 mg/kg, sublingual, 1h, 2h and 3h post dose
  rotarod performance (time to slip): No statistical significant effects
[8]; 62.5 mg/kg, intravenous
  Body Weight (g, 2 weeks postdose): 34.7 ± 1.5 g
  Body Weight (g, predose): 30.0 ± 1.0 g
  behaviour after administration: appeared sedated after peptide but recovered after several hours
[8]; 125 mg/kg intravenous
  mice that died: four out of nine
  time to death: 5 to 10 min
[8]; 125 mg/kg intravenous, five surviving mice
  behaviour of surviving mice: appeared heavily sedated for several hours
[8]; [14]
  Body Weight (g, 2 weeks postdose): 33.6 ± 1.5 g
  Body Weight (g, predose): 28.6 ± 1.3 g
[8]; 2 g/kg oral by gavage
  behaviour after administration: appeared sedated with much decreased activity
[8]; 2 g/kg oral, listed as peptide
  time to recovery from sedation: about 1 h
[8]; 2g/kg, oral
  Body Weight (g, 2 weeks postdose): 33.0 ± 1.7 g
  Body Weight (g, predose): 29.3 ± 1.5 g
  time to recovery from sedation: ≤ 1 h
[8]; administered intravenously, mice
  LD50: about 125 mg/kg
[9]; 8 mg/kg
  Appearance: normal
  Body Weight Day 1: 21.4 ± 0.8 g
  Body Weight Day 14: 30.0 ± 0.4 g
  Death: nil
[9]; 8 mg/kg, listed as peptide
  Death: death of one mouse
[9]; 80 mg/kg
  Appearance: normal
  Body Weight Day 1: 21.3 ± 0.5 g
  Body Weight Day 14: 28.1 ± 1.2 g
  Death: Nil
[9]; 8 or 80 mg/kg intraperitoneal once daily for 14 days
  organ appearance and weights: All organs appeared normal and no differences in weight were observed
[9]; multiple high doses up to 80 mg/kg for 14 days
  obvious toxicity: did not cause any obvious toxicity
[10]; 1 hour after administration, other routes of administration
  plasma concentration: approximately undetectable
[10]; intraperitoneal route
  bioavailability: 0.5%
[10]; mouse, plasma, 25 mg/kg, 1 hour after administration, sublingual route
  level at 1 h: > 100 ng/mL
[10]; mouse, plasma, ip, intraperitoneal route, read-out: bioavailability
  bioavailability: 0.5%
[10]; mouse, plasma, oral route, read-out: bioavailability
  bioavailability: 4%
[10]; oral route
  bioavailability: 4%
[10]; sublingual route
  bioavailability: 44%
[10]; sublingual, doses below 5 mg/kg, by 30 min after administration
  plasma concentration: negligible
[11]; 8 mg/kg
  Appearance: normal
  Body Weight Day 1: 26.2 ± 0.4 g
  Body Weight Day 14: 31.7 ± 0.5 g
  Death: nil
[11]; 80 mg/kg
  Appearance: normal
  Body Weight Day 1: 25.8 ± 0.6 g
  Body Weight Day 14: 31.1 ± 0.7 g
  Death: Nil
[11]; single dose 8 or 80 mg/kg intraperitoneal, day 14
  organ appearance and weights: All organs appeared normal and no differences in weight were observed
[11]; single high dose up to 80 mg/kg
  obvious toxicity: did not cause any obvious toxicity
[4]; 5 or 50 mg/kg, within 4 h of drug administration, compared to control
  locomotive activities: no significant difference
[12]; intravenous route
  blood pressure: dose dependent drop
[12]; intravenous route, listed as Peptide
  blood pressure: decreased in blood pressure
[12]; sublingual or intraperitoneal routes
  blood pressure: no change in blood pressure
[12]; sublingual or intraperitoneal routes, listed as peptide
  blood pressure: did not cause any changes in blood pressure
[5]; 5 mg/kg and 50 mg/kg intraperitoneal
  GI transit distance: did not show any significant reduction
[5]; 5 mg/kg and 50 mg/kg intraperitoneal, listed as The peptide
  GI transit distance: does not show any significant effect
[6]; 1 or 50 mg/kg, 30 min or 3 h post-dose, compared to saline
  time spent in the open or closed arms: did not produce any significant changes
[7]; intraperitoneally, 1 or 50 mg/kg, compared to saline control
  anxiety scores: did not show any effect on the anxiety scores

## desmopressin
[13]; [15]
  bioavailability: about 0.25%

## oxytocin
[13]; formulation with 0.75% w/w sodium taurocholate (tablet form)
  bioavailability: 27%
[13]; [15]
  bioavailability: 0.007-0.07%
[13]; sublingual route (oxytocin in physiological saline solution), listed as Oxytocin
  bioavailability: 0.007 - 0.07%
